pEC50: −log10 of the molar value.
Experiments:
ScSte2 = biological target: T1, ScSte2 (Saccharomyces cerevisiae, UniProt D6VTK4); experiment: cell-based; conditions: SEM
T1 construct: we cloned codon-optimized open reading frames (ORFs) of all 5 proteases and GPCRs; expressed in transfected cells; host or cells: S. cerevisiae yTC391 (from yTC370, native STE2 deleted; pTDH3-ScSTE2 genome-integrated)
Protocol: (§1) Glycerol stocked strains were streaked out on YPD plate and incubated for 2 days. Three colonies were picked, replated on YPD plate, incubated for 1 day, and then stored at 4 °C. For activation assays, a small scoop of yeast patch from the 3 colonies was resuspended in ~4 ml of YPD medium and incubated overnight. Overnight cells were seeded at an optical density at 600 nm (OD600) of 0.15 (as measured in 96-well plate at 200-μl volume) in SC/Glc medium after washing twice with sterile Mili-Q H2O. GPCR activity and response to increasing concentrations of synthetic peptide ligands were measured in strains carrying appropriate genome-integrated components in 96-well microtiter plates in 200-μl total volume and cultured at 30 °C and 800 rpm, unless otherwise stated. All measurements were performed in biological triplicate. Culture turbidity (OD600) and fluorescence for ymTurquoise2 (excitation, 439 nm; emission, 475 nm; gain, 75) were measured after 0 and 8 h using an Infinite 200 Pro plate reader (Tecan). Dose–response curve was measured at 11 different concentrations of the appropriate synthetic peptide ligand with a constant dilution factor and a no-peptide, H2O control. The absorbance at 600 nm normalized fluorescence values and log10-transformed peptide concentrations were fit to a 4-parameter nonlinear regression model using Prism (GraphPad) to extract GPCR-specific values for basal activation, maximal activation, EC50, and the Hill coefficient.
(§2) Statistical tests of all experiments were performed using GraphPad Prism version 7 and are detailed within the legend of each figure. In all figures, the data points represent means ± SD of biological triplicates. Curves fitted to all dose–response data were fitted in Prism 7 using the nonlinear regression: variable slope (4-parameter) curve fitting.
(§3) Changes in EC50 and activation span (maximal fluorescence activation − basal fluorescence activation) due to difference in variant peptide sequences from the wild-type peptides are depicted as ΔlogEC50 from wild-type Pep (variant peptide logEC50 − wild-type peptide logEC50) and ΔSpan from wild-type Pep (variant peptide Span – wild-type peptide Span), respectively. Apparent shift in EC50 and change in activation span in both wild-type and variant peptides due to protease expression are depicted as ΔlogEC50 with protease (peptide logEC50 with protease − peptide logEC50 without protease) and ΔSpan with protease (peptide Span with protease − peptide Span without protease), respectively.

ScSte2 + ScBar1 = biological target: T2, ScSte2 + ScBar1 (Saccharomyces cerevisiae, UniProt D6VTK4); experiment: Dose-response activation of ScSte2 biosensor strain secreting ScBar1 (two copies, yBB01), fluorescent readout; type: cell-based; conditions: SEM
T2 construct: we cloned codon-optimized open reading frames (ORFs) of all 5 proteases and GPCRs; expressed in transfected cells; host or cells: S. cerevisiae yBB01 (from yTC370; pTDH3-ScSTE2, two pCCW12-ScBAR1 cassettes, genome-integrated)
Protocol: as §1, §2, §3

T2 sequence (D6VTK4 whole entry): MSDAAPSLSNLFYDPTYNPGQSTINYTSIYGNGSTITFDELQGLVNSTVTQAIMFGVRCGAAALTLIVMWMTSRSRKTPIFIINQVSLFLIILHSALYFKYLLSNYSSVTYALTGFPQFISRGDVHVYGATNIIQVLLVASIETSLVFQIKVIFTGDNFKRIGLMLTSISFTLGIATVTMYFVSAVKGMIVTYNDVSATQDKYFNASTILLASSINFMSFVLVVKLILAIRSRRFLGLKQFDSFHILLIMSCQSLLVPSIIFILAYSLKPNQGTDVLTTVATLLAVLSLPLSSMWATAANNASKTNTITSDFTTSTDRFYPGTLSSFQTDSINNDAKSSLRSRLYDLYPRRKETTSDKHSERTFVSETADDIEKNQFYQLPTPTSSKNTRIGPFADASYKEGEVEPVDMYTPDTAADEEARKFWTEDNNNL
T1 sequence (D6VTK4 whole entry): as above

Row | SMILES | pEC50 (ScSte2) | pEC50 (ScSte2 + ScBar1)
1 | CSCC[C@H](NC(=O)[C@@H]1CCCN1C(=O)[C@H](CCC(N)=O)NC(=O)CNC(=O)[C@@H]1CCCN1C(=O)[C@H](CCCCN)NC(=O)[C@H](CC(C)C)NC(=O)[C@H](CCC(N)=O)NC(=O)[C@H](CC(C)C)NC(=O)[C@H](Cc1c[nH]c2ccccc12)NC(=O)[C@H](Cc1c[nH]cn1)NC(=O)[C@H](C)N)C(=O)N[C@@H](Cc1ccc(O)cc1)C(=O)O [ScPep1A] | 7.40 | 5.90
2 | CSCC[C@H](NC(=O)[C@@H]1CCCN1C(=O)[C@H](CCC(N)=O)NC(=O)CNC(=O)[C@@H]1CCCN1C(=O)[C@H](CCCCN)NC(=O)[C@H](CC(C)C)NC(=O)[C@H](CCC(N)=O)NC(=O)[C@H](CC(C)C)NC(=O)[C@H](Cc1c[nH]c2ccccc12)NC(=O)[C@H](C)NC(=O)[C@@H](N)Cc1c[nH]c2ccccc12)C(=O)N[C@@H](Cc1ccc(O)cc1)C(=O)O [ScPep2A] | 7.10 | 5.00
3 | CSCC[C@H](NC(=O)[C@@H]1CCCN1C(=O)[C@H](CCC(N)=O)NC(=O)CNC(=O)[C@@H]1CCCN1C(=O)[C@H](CCCCN)NC(=O)[C@H](CC(C)C)NC(=O)[C@H](CCC(N)=O)NC(=O)[C@H](CC(C)C)NC(=O)[C@H](C)NC(=O)[C@H](Cc1c[nH]cn1)NC(=O)[C@@H](N)Cc1c[nH]c2ccccc12)C(=O)N[C@@H](Cc1ccc(O)cc1)C(=O)O [ScPep3A] | 7.20 | 4.60
4 | CSCC[C@H](NC(=O)[C@@H]1CCCN1C(=O)[C@H](CCC(N)=O)NC(=O)CNC(=O)[C@@H]1CCCN1C(=O)[C@H](CCCCN)NC(=O)[C@H](CC(C)C)NC(=O)[C@H](CCC(N)=O)NC(=O)[C@H](C)NC(=O)[C@H](Cc1c[nH]c2ccccc12)NC(=O)[C@H](Cc1c[nH]cn1)NC(=O)[C@@H](N)Cc1c[nH]c2ccccc12)C(=O)N[C@@H](Cc1ccc(O)cc1)C(=O)O [ScPep4A] | – | 5.40
5 | CSCC[C@H](NC(=O)[C@@H]1CCCN1C(=O)[C@H](CCC(N)=O)NC(=O)CNC(=O)[C@@H]1CCCN1C(=O)[C@H](CCCCN)NC(=O)[C@H](CC(C)C)NC(=O)[C@H](C)NC(=O)[C@H](CC(C)C)NC(=O)[C@H](Cc1c[nH]c2ccccc12)NC(=O)[C@H](Cc1c[nH]cn1)NC(=O)[C@@H](N)Cc1c[nH]c2ccccc12)C(=O)N[C@@H](Cc1ccc(O)cc1)C(=O)O [ScPep5A] | 7.30 | 6.30
6 | CSCC[C@H](NC(=O)[C@@H]1CCCN1C(=O)[C@H](CCC(N)=O)NC(=O)CNC(=O)[C@@H]1CCCN1C(=O)[C@H](CCCCN)NC(=O)[C@H](C)NC(=O)[C@H](CCC(N)=O)NC(=O)[C@H](CC(C)C)NC(=O)[C@H](Cc1c[nH]c2ccccc12)NC(=O)[C@H](Cc1c[nH]cn1)NC(=O)[C@@H](N)Cc1c[nH]c2ccccc12)C(=O)N[C@@H](Cc1ccc(O)cc1)C(=O)O [ScPep6A] | 7.10 | 5.50
7 | CSCC[C@H](NC(=O)[C@@H]1CCCN1C(=O)[C@H](CCC(N)=O)NC(=O)CNC(=O)[C@@H]1CCCN1C(=O)[C@H](C)NC(=O)[C@H](CC(C)C)NC(=O)[C@H](CCC(N)=O)NC(=O)[C@H](CC(C)C)NC(=O)[C@H](Cc1c[nH]c2ccccc12)NC(=O)[C@H](Cc1c[nH]cn1)NC(=O)[C@@H](N)Cc1c[nH]c2ccccc12)C(=O)N[C@@H](Cc1ccc(O)cc1)C(=O)O [ScPep7A] | 6.90 | 5.40
8 | CSCC[C@H](NC(=O)[C@@H]1CCCN1C(=O)[C@H](CCC(N)=O)NC(=O)CNC(=O)[C@H](C)NC(=O)[C@H](CCCCN)NC(=O)[C@H](CC(C)C)NC(=O)[C@H](CCC(N)=O)NC(=O)[C@H](CC(C)C)NC(=O)[C@H](Cc1c[nH]c2ccccc12)NC(=O)[C@H](Cc1c[nH]cn1)NC(=O)[C@@H](N)Cc1c[nH]c2ccccc12)C(=O)N[C@@H](Cc1ccc(O)cc1)C(=O)O [ScPep8A] | 7.10 | 5.60
9 | CSCC[C@H](NC(=O)[C@@H]1CCCN1C(=O)[C@H](CCC(N)=O)NC(=O)[C@H](C)NC(=O)[C@@H]1CCCN1C(=O)[C@H](CCCCN)NC(=O)[C@H](CC(C)C)NC(=O)[C@H](CCC(N)=O)NC(=O)[C@H](CC(C)C)NC(=O)[C@H](Cc1c[nH]c2ccccc12)NC(=O)[C@H](Cc1c[nH]cn1)NC(=O)[C@@H](N)Cc1c[nH]c2ccccc12)C(=O)N[C@@H](Cc1ccc(O)cc1)C(=O)O [ScPep9A] | 6.80 | 4.80
10 | CSCC[C@H](NC(=O)[C@@H]1CCCN1C(=O)[C@H](C)NC(=O)CNC(=O)[C@@H]1CCCN1C(=O)[C@H](CCCCN)NC(=O)[C@H](CC(C)C)NC(=O)[C@H](CCC(N)=O)NC(=O)[C@H](CC(C)C)NC(=O)[C@H](Cc1c[nH]c2ccccc12)NC(=O)[C@H](Cc1c[nH]cn1)NC(=O)[C@@H](N)Cc1c[nH]c2ccccc12)C(=O)N[C@@H](Cc1ccc(O)cc1)C(=O)O [ScPep10A] | 6.90 | 5.20
11 | CSCC[C@H](NC(=O)[C@H](C)NC(=O)[C@H](CCC(N)=O)NC(=O)CNC(=O)[C@@H]1CCCN1C(=O)[C@H](CCCCN)NC(=O)[C@H](CC(C)C)NC(=O)[C@H](CCC(N)=O)NC(=O)[C@H](CC(C)C)NC(=O)[C@H](Cc1c[nH]c2ccccc12)NC(=O)[C@H](Cc1c[nH]cn1)NC(=O)[C@@H](N)Cc1c[nH]c2ccccc12)C(=O)N[C@@H](Cc1ccc(O)cc1)C(=O)O [ScPep11A] | 7.30 | 5.60
12 | CC(C)C[C@H](NC(=O)[C@H](Cc1c[nH]c2ccccc12)NC(=O)[C@H](Cc1c[nH]cn1)NC(=O)[C@@H](N)Cc1c[nH]c2ccccc12)C(=O)N[C@@H](CCC(N)=O)C(=O)N[C@@H](CC(C)C)C(=O)N[C@@H](CCCCN)C(=O)N1CCC[C@H]1C(=O)NCC(=O)N[C@@H](CCC(N)=O)C(=O)N1CCC[C@H]1C(=O)N[C@@H](C)C(=O)N[C@@H](Cc1ccc(O)cc1)C(=O)O [ScPep12A] | 7.30 | 6.00
13 | CSCC[C@H](NC(=O)[C@@H]1CCCN1C(=O)[C@H](CCC(N)=O)NC(=O)CNC(=O)[C@@H]1CCCN1C(=O)[C@H](CCCCN)NC(=O)[C@H](CC(C)C)NC(=O)[C@H](CCC(N)=O)NC(=O)[C@H](CC(C)C)NC(=O)[C@H](Cc1c[nH]c2ccccc12)NC(=O)[C@H](Cc1c[nH]cn1)NC(=O)[C@@H](N)Cc1c[nH]c2ccccc12)C(=O)N[C@@H](C)C(=O)O [ScPep13A] | 7.20 | 5.10

Source: paper PMC10084949, “Peptide Variant Detection by a Living Yeast Biosensor via an Epitope-Selective Protease” (Biodesign Research, 2023)
